Experimental data as given in patent US20170247326A1, “Substituted Pyrrolidine Carboxamide Compounds” (EPIZYME, INC., priority 2014, published 2017).

target: T1, SMYD2 (Homo sapiens, UniProt Q9NRG4); assay: SMYD2 biochemical assay (3H-SAM, biotinylated peptide substrate, Flashplate); settings: Table 1; average of n = 1 to n = 50; read-out: SMYD2 Biochem IC50
T1 construct: Full length SMYD2 (NP_064582.2) was cloned; His6 (N, cleaved yes); FLAG (N); made in house; host or cells: Sf9 insect cells
Source text: S-adenosylmethionine (SAM), S-adenosylhomocysteine (SAH), bicine, Tween20, dimethylsulfoxide (DMSO), bovine skin gelatin (BSG), and Tris(2-carboxyethyl)phosphine hydrochloride (TCEP) were purchased from Sigma-Aldrich at the highest level of purity possible. ^3H-SAM was purchase from American Radiolabeled Chemicals with a specific activity of 80 Ci/mmol. 384-well streptavidin Flashplates were purchased from PerkinElmer.
Peptide was synthesized with a N-terminal linker-affinity tag motif and a C-terminal amide cap by 21st Century Biochemicals. The peptide was high high-performance liquid chromatography (HPLC) purified to greater than 95% purity and confirmed by liquid chromatography mass spectrometry (LC-MS). The sequence was […](K-Biot)-amide. (SEQ ID NO: 3)
Full length SMYD2 (NP_064582.2) was cloned into a pFastbac-Htb-lic vector with an N-terminal His6 tag and FLAG tag, preceded by a TEV protease cleavage site. The protein was expressed in Sf9 insect cells. Cells were resuspended in lysis buffer (25 mM HEPES-NaOH, pH 7.5, 200 mM NaCl, 5% glycerol, and 5 mM […] and lysed by sonication. The protein was purified by Ni-NTA (Qiagen), followed by TEV cleavage to remove the His6 tag, subtractive Ni-NTA (Qiagen), and gel filtration chromatography using an S200 column (GE Healthcare). Purified protein was stored in 20 mM Tris-HCl, pH 8.0, 100 mM NaCl, and 1 mM TCEP.
General Procedure for SMYD2 Enzyme Assays on Peptide Substrates
The assays were all performed in a buffer consisting of 20 mM Bicine (pH=7.6), 1 mM TCEP, 0.005% Bovine Skin Gelatin, and 0.002% Tween20, prepared on the day of use. Compounds in 100% DMSO (1 ul) were spotted into a polypropylene 384-well V-bottom plates (Greiner) using a Platemate Plus outfitted with a 384-channel head (Thermo Scientific). DMSO (1 ul) was added to Columns 11, 12, 23, 24, rows A-H for the maximum signal control and 1 ul of SAH, a known product and inhibitor of SMYD2, was added to columns 11, 12, 23, 24, rows I-P for the minimum signal control. A cocktail (40 ul) containing the SMYD2 enzyme was added by Multidrop Combi (Thermo-Fisher). The compounds were allowed to incubate with SMYD2 for 30 min at room temperature, then a cocktail (10 ul) containing ^3H-SAM and peptide was added to initiate the reaction (final volume=51 ul). The final concentrations of the components were as follows: SMYD2 was 1.5 nM, ^3H-SAM was 10 nM, and peptide was 60 nM, SAH in the minimum signal control wells was 1000 uM, and the DMSO concentration was 2%. The assays were stopped by the addition of non-radioactive SAM (10 ul) to a final concentration of 600 uM, which dilutes the ^3H-SAM to a level where its incorporation into the peptide substrate is no longer detectable. 50 ul of the reaction in the 384-well polypropylene plate was then transferred to a 384-well Flashplate and the biotinylated peptides were allowed to bind to the streptavidin surface for at least 1 hour before being washed three times with 0.1% Tween20 in a Biotek ELx405 plate washer. The plates were then read in a PerkinElmer TopCount plate reader to measure the quantity of ^3H-labeled peptide bound to the Flashplate surface, measured as disintegrations per minute (dpm) or alternatively, referred to as counts per minute (cpm).
Where dpm=disintegrations per minute, cmpd=signal in assay well, and min and max are the respective minimum and maximum signal controls.
Where top and bottom are the normally allowed to float, but may be fixed at 100 or 0 respectively in a 3-parameter fit. The Hill Coefficient normally allowed to float but may also be fixed at 1 in a 3-parameter fit. I is the compound concentration.
SMYD2 biochemical assay data for representative Compounds of the Disclosure are presented in Tables 1, 3, and 4 in the column titled “SMYD2 Bicohem IC50 (μM).”

T1 sequence (Q9NRG4 whole entry): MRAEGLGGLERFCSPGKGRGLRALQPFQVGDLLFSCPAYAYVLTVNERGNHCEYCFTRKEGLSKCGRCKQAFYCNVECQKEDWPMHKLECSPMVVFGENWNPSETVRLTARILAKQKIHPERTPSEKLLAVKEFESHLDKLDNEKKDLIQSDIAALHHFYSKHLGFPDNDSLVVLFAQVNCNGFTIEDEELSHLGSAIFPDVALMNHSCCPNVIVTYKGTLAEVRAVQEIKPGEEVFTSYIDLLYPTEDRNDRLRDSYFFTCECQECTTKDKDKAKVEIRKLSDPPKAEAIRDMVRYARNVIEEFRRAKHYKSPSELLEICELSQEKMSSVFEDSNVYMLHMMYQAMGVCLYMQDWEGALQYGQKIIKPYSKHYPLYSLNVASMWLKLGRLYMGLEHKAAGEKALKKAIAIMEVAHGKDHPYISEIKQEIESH

Point of comparison: `C[C@H]1CN(C2CC2)C[C@H]1NC(=O)c1cn(C2CC2)nn1` (racemic) [compound 19, (±)-cis-1-cyclopropyl-N-(1-cyclopropyl-4-methylpyrrolidin-3-yl)-1H-1,2,3-triazole-4-carboxamide], IC50 1.4 µM. Against it:
- C[C@H]1CN(C2CC2)C[C@H]1NC(=O)c1ccc2[nH]c(=O)[nH]c2c1 (racemic) [compound 23, (±)-cis-N-(1-cyclopropyl-4-methylpyrrolidin-3-yl)-2-oxo-2,3-dihydro-1H-benzo[d]imidazole-5-carboxamide] — higher, > 50 µM
- C[C@H]1CN(C2CC2)C[C@@H]1NC(=O)Cc1ccc2c(c1)NC(=O)CO2 (racemic) [compound 3, (±)-trans-N-(1-cyclopropyl-4-methylpyrrolidin-3-yl)-2-(3-oxo-3,4-dihydro-2H-benzo[b][1,4]oxazin-6-yl)acetamide] — higher, > 50 µM
- C[C@H]1CN(C2CC2)C[C@H]1NC(=O)c1ccc(N2CCCC2)cc1 (racemic) [compound 21, (±)-cis-N-(1-cyclopropyl-4-methylpyrrolidin-3-yl)-4-(pyrrolidin-1-yl)benzamide] — higher, > 50 µM
- C[C@H]1CN(C2CC2)C[C@H]1NC(=O)c1cc(O)nn1C (racemic) [compound 16, (±)-cis-N-(1-cyclopropyl-4-methylpyrrolidin-3-yl)-3-hydroxy-1-methyl-1H-pyrazole-5-carboxamide] — higher, > 50 µM
- C[C@H]1CN(C2CC2)C[C@@H]1NC(=O)c1ccc2c(c1)CC(=O)N2 (racemic) [Cpd. No. 5, (±)-trans-N-(1-cyclopropyl-4-methylpyrrolidin-3-yl)-2-oxoindoline-5-carboxamide] — higher, > 50 µM

same assay, conditions: Table 3; average of n = 1 to n = 50; read-out: SMYD2 Biochem IC50

Point of comparison: `CC(C)N1C[C@@H](C)[C@@H](NC(=O)c2cn(C3CC3)cn2)C1` (stereo in doubt) [compound 121, (±)-cis-1-cyclopropyl-N-(1-isopropyl-4-methylpyrrolidin-3-yl)-1H-imidazole-4-carboxamide], IC50 2.2 µM. Against it:
- CC(C)N1C[C@@H](C)[C@H](NC(=O)c2noc(C3CC3)n2)C1 (racemic) [compound 39, (±)-trans-5-cyclopropyl-N-[4-methyl-1-(propan-2-yl)pyrrolidin-3-yl]-1,2,4-oxadiazole-3-carboxamide] — higher, > 50 µM
- CC(C)N1C[C@H](C)[C@H](NC(=O)c2ncc(C3CC3)[nH]2)C1 (racemic) [compound 79, (±)-cis-5-cyclopropyl-N-[4-methyl-1-(propan-2-yl)pyrrolidin-3-yl]-1H-imidazole-2-carboxamide] — within 1.5-fold, 1.96 µM
- CC(C)N1C[C@H](C)[C@H](NC(=O)c2nsc(C3CC3)n2)C1 (racemic) [compound 88, (±)-cis-5-cyclopropyl-N-[4-methyl-1-(propan-2-yl)pyrrolidin-3-yl]-1,2,4-thiadiazole-3-carboxamide] — higher, > 50 µM
- CC(C)N1C[C@H](C)[C@H](NC(=O)c2ccc(C3CC3)nn2)C1 (racemic) [compound 109, (±)-cis-6-cyclopropyl-N-[4-methyl-1-(propan-2-yl)pyrrolidin-3-yl]pyridazine-3-carboxamide] — higher, > 50 µM
- CC(C)N1C[C@@H](C)[C@H](NC(=O)c2ccc(C3CC3)nn2)C1 (racemic) [compound 108, (±)-trans-6-cyclopropyl-N-[4-methyl-1-(propan-2-yl)pyrrolidin-3-yl]pyridazine-3-carboxamide] — higher, > 50 µM
- CC(C)N1C[C@H](C)[C@H](NC(=O)c2nc(C3CC3)no2)C1 (racemic) [compound 81, (±)-cis-3-cyclopropyl-N-[4-methyl-1-(propan-2-yl)pyrrolidin-3-yl]-1,2,4-oxadiazole-5-carboxamide] — higher, > 50 µM
- CC(C)N1C[C@H](NC(=O)c2cnn(C(C)C)c2)[C@@H](C)C1 (racemic) [compound 47, (±)-trans-N-[4-methyl-1-(propan-2-yl)pyrrolidin-3-yl]-1-(propan-2-yl)-1H-pyrazole-4-carboxamide] — higher, > 50 µM
- CCc1cnnc(C(=O)N[C@@H]2CN(C(C)C)C[C@@H]2C)c1 (racemic) [compound 96, (±)-cis-5-ethyl-N-[4-methyl-1-(propan-2-yl)pyrrolidin-3-yl]pyridazine-3-carboxamide] — 2.3-fold higher, 5.09 µM
- CC(C)N1C[C@@H](C)[C@H](NC(=O)c2ccn(C(C)C)n2)C1 (racemic) [compound 45, (±)-trans-N-[4-methyl-1-(propan-2-yl)pyrrolidin-3-yl]-1-(propan-2-yl)-1H-pyrazole-3-carboxamide] — higher, > 50 µM
- CC(C)N1C[C@@H](C)[C@H](NC(=O)c2nccc(C3CC3)n2)C1 (racemic) [compound 67, (±)-trans-4-cyclopropyl-N-[4-methyl-1-(propan-2-yl)pyrrolidin-3-yl]pyrimidine-2-carboxamide] — higher, > 50 µM
- CC(C)N1C[C@H](C)[C@H](NC(=O)c2nc(C3CC3)cs2)C1 (racemic) [compound 35, (±)-cis-4-cyclopropyl-N-[4-methyl-1-(propan-2-yl)pyrrolidin-3-yl]-1,3-thiazole-2-carboxamide] — higher, > 50 µM
- CC(C)N1C[C@H](C)[C@H](NC(=O)c2cn(C(C)C)nn2)C1 (racemic) [compound 25, (±)-cis-N-[4-methyl-1-(propan-2-yl)pyrrolidin-3-yl]-1-(propan-2-yl)-1H-1,2,3-triazole-4-carboxamide] — 2.9-fold higher, 6.34 µM
- CC(C)N1C[C@@H](C)[C@H](NC(=O)c2ccc(N3CCCC3)cc2)C1 (racemic) [compound 33, (±)-trans-N-[4-methyl-1-(propan-2-yl)pyrrolidin-3-yl]-4-(pyrrolidin-1-yl)benzamide] — higher, > 50 µM
- CC(C)N1C[C@H](C)[C@H](NC(=O)c2cncc(C3CC3)n2)C1 (racemic) [compound 42, (±)-cis-6-cyclopropyl-N-[4-methyl-1-(propan-2-yl)pyrrolidin-3-yl]pyrazine-2-carboxamide] — higher, > 50 µM
- CC(C)N1C[C@@H](C)[C@@H](NC(=O)c2cc(C3CC3)cnn2)C1 (stereo in doubt) [compound 101, rel-5-cyclopropyl-N-[(3R,4R)-4-methyl-1-(propan-2-yl)pyrrolidin-3-yl]pyridazine-3-carboxamide] — 9-fold lower, 0.245 µM
- CC(C)N1C[C@H](C)[C@H](NC(=O)c2ccc3c(c2)NC(=O)CO3)C1 (single isomer, unassigned) [compound 32, (+)-cis-N-[4-methyl-1-(propan-2-yl)pyrrolidin-3-yl]-3-oxo-3,4-dihydro-2H-1,4-benzoxazine-6-carboxamide] — higher, > 50 µM
- CC(C)N1C[C@@H](C)[C@H](NC(=O)c2ncc(C3CC3)[nH]2)C1 (racemic) [compound 74, (±)-trans-5-cyclopropyl-N-[4-methyl-1-(propan-2-yl)pyrrolidin-3-yl]-1H-imidazole-2-carboxamide] — 11-fold higher, 24.3 µM
- CC(C)N1C[C@@H](C)[C@H](NC(=O)c2cn(C3CC3)nn2)C1 (racemic) [compound 26, (±)-trans-1-cyclopropyl-N-[4-methyl-1-(propan-2-yl)pyrrolidin-3-yl]-1H-1,2,3-triazole-4-carboxamide] — 8.8-fold higher, 19.3 µM

same assay, conditions: Table 4; average of n = 1 to n = 50; read-out: SMYD2 Biochem IC50

With `CC(C)N1C[C@@H](N(C)C(=O)c2cc(C3CC3)cnn2)[C@@H](C)C1` (racemic) [compound 130, rac-5-cyclopropyl-N-((3R,4R)-1-isopropyl-4-methylpyrrolidin-3-yl)-N-methylpyridazine-3-carboxamide] the IC50 was 6.4 µM.
